According to ChEMBL document CHEMBL3102715, “Synthesis and anti-rhinovirus activity of novel 3-[2-(pyridinyl)vinyl]substituted -2H-chromenes and -4H-chromen-4-ones” (Bioorg Med Chem, 2014):
The source made the active and inactive calls. The calls are words filed in the database; no cut-off is given here.

Columns and labels:
[1] = Selectivity index, ratio of CC50 for human HeLa cells to IC50 for HRV 1B infected in human HeLa cells; assay type: functional
rhinovirus B14 [2] = assay: Antiviral activity against HRV 14 infected in human HeLa cells assessed as reduction in plaque number after 3 days by neutral red assay; assay type: functional, organism-based; conditions: Rhinovirus B, 72 h
[3] = Cytotoxicity against human HeLa cells assessed as reduction in cell viability after 3 days by XTT assay; assay type: cell-based; conditions: for MNTC at 72 h: read-out: MNCC
rhinovirus A1B [4] = assay: Antiviral activity against HRV 1B infected in human HeLa cells assessed as reduction in plaque number after 3 days by neutral red assay; assay type: functional, organism-based, Human rhinovirus 1B; conditions: Rhinovirus A, 72 h
[5] = Selectivity index, ratio of CC50 for human HeLa cells to IC50 for HRV 14 infected in human HeLa cells; assay type: functional
rhinovirus B14 [6] = assay: Antiviral activity against HRV 14 infected in human HeLa cells assessed as inhibition of viral yield compound treated at 58 uM prior to 1 hr incubated at 4 degC followed by 10 hrs at 33 degC infection period by plaque assay; assay type: functional
rhinovirus A1B [7] = assay: Antiviral activity against HRV 1B infected in human HeLa cells assessed as reduction of viral yield at 43 uM treated 2 hrs post infection measured after 10 hrs by plaque assay; assay type: functional, organism-based; conditions: Human rhinovirus 1B
rhinovirus A1B [8] = assay: Antiviral activity against HRV 1B infected in human HeLa cells assessed as inhibition of viral yield at 43 uM treated during 10 hrs multiplication period by plaque assay relative to control; assay type: functional, Human rhinovirus 1B; conditions: Rhinovirus A
rhinovirus A1B [9] = assay: Antiviral activity against HRV 1B infected in human HeLa cells assessed as inhibition of viral yield compound treated at 43 uM during 1 hr at 4 degC followed by compound washout by plaque assay; assay type: functional, Human rhinovirus 1B; conditions: Rhinovirus A
rhinovirus B14 [10] = assay: Antiviral activity against HRV 14 infected in human HeLa cells assessed as inhibition of viral yield at 58 uM treated during 10 hrs multiplication period by plaque assay relative to control; assay type: functional; conditions: Rhinovirus B
rhinovirus A1B [11] = assay: Antiviral activity against HRV 1B infected in human HeLa cells assessed as inhibition of viral yield at 43 uM treated at 1 hr after virus adsorption period measured after 10 hrs by plaque assay relative to control; assay type: functional, Human rhinovirus 1B; conditions: Rhinovirus A
rhinovirus A1B [12] = assay: Antiviral activity against HRV 1B infected in human HeLa cells assessed as maximal reduction of viral yield at 43 uM treated 4 hrs post adsorption period measured after 10 hrs by plaque assay; assay type: functional, organism-based; conditions: Human rhinovirus 1B
rhinovirus A1B [13] = assay: Antiviral activity against HRV 1B infected in human HeLa cells assessed as inhibition of viral yield compound treated at 43 uM for 1 hr prior infection followed by compound wash-out by plaque assay; assay type: functional, Human rhinovirus 1B; conditions: Rhinovirus A
rhinovirus A1B [14] = assay: Antiviral activity against HRV 1B infected in human HeLa cells assessed as log reduction in infectivity at 43 uM after 10 hrs by plaque assay at pH 5.0 relative to control; assay type: functional, Human rhinovirus 1B
rhinovirus A1B [15] = assay: Antiviral activity against HRV 1B infected in human HeLa cells assessed as half-maximal reduction of viral yield at 43 uM treated 45 mins post adsorption period measured after 10 hrs by plaque assay; assay type: functional, organism-based; conditions: Human rhinovirus 1B
rhinovirus A1B [16] = assay: Antiviral activity against HRV 1B infected in human HeLa cells assessed as inhibition of viral yield compound treated at 43 uM prior to 1 hr incubated at 4 degC followed by 10 hrs at 33 degC infection period by plaque assay; assay type: functional, Human rhinovirus 1B
rhinovirus B14 [17] = assay: Antiviral activity against HRV 14 infected in human HeLa cells assessed as log reduction in infectivity at 58 uM after 10 hrs by plaque assay at pH 5.0 relative to control; assay type: functional
rhinovirus B14 [18] = assay: Antiviral activity against HRV 14 infected in human HeLa cells assessed as maximal reduction of viral yield at 58 uM treated 6 hrs post adsorption period measured after 10 hrs by plaque assay; assay type: functional, organism-based
rhinovirus B14 [19] = assay: Antiviral activity against HRV 14 infected in human HeLa cells assessed as half-maximal reduction of viral yield at 58 uM treated 1 hr post adsorption period measured after 10 hrs by plaque assay; assay type: functional, organism-based
rhinovirus B14 [20] = assay: Antiviral activity against HRV 14 infected in human HeLa cells assessed as inhibition of viral yield at 58 uM treated at 1 hr after virus adsorption period measured after 10 hrs by plaque assay relative to control; assay type: functional; conditions: Rhinovirus B
rhinovirus B14 [21] = assay: Antiviral activity against HRV 14 infected in human HeLa cells assessed as inhibition of viral yield compound treated at 58 uM during 1 hr at 4 degC followed by compound washout by plaque assay; assay type: functional; conditions: Rhinovirus B
rhinovirus B14 [22] = assay: Antiviral activity against HRV 14 infected in human HeLa cells assessed as inhibition of viral yield compound treated at 58 uM for 1 hr prior infection followed by compound wash-out by plaque assay; assay type: functional; conditions: Rhinovirus B
rhinovirus B14 [23] = assay: Antiviral activity against HRV 14 infected in human HeLa cells assessed as reduction of viral yield at 58 uM treated 4 hrs post infection measured after 10 hrs by plaque assay; assay type: functional, organism-based
rhinovirus A1B [24] = assay: Antiviral activity against HRV 1B infected in human HeLa cells assessed as log reduction in infectivity at 43 uM after 10 hrs by plaque assay at 56 degC relative to control; assay type: functional, Human rhinovirus 1B
rhinovirus B14 [25] = assay: Antiviral activity against HRV 14 infected in human HeLa cells assessed as log reduction in infectivity at 58 uM after 10 hrs by plaque assay at 56 degC relative to control; assay type: functional
rhinovirus A1B [26] = assay: Antiviral activity against HRV 1B infected in human HeLa cells assessed as reduction in plaque number at maximum non-cytotoxic concentration after 3 days by neutral red assay; assay type: functional, Human rhinovirus 1B; parameters: scale not given: the % may be the effect or the level left

Row | SMILES | Ratio CC50/IC50 [1] | IC50 (rhinovirus B14 [2]) [µM] | CC50 at 72 h [3] [µM] | MNTC at 72 h [3] [µM] | IC50 (rhinovirus A1B [4]) [µM] | Ratio CC50/IC50 [5] | further results
1 | O=c1c(/C=C/c2ccncc2)coc2ccc(Cl)cc12 | 7.87 | 15.6 | 150 | 100 | 19.1 | 9.6 | –
2 | Clc1ccc2c(c1)C=C(/C=C/c1cccnc1)CO2 | 8.64 | 4.27 | 37.5 | 25 | 4.34 | 8.78 | –
3 | C1=C(/C=C/c2cccnc2)COc2ccccc21 | 16.41 | 3.88 | 75 | 25 | 4.57 | 19.33 | –
4 | C1=C(/C=C/c2ccccn2)COc2ccccc21 | >29.41 | 2.93 | > 50 | > 50 | 1.7 | >17.06 | inhibition (INH) (rhinovirus B14 [6]): 90%; Activity (rhinovirus A1B [7]): inactive; inhibition at 43 µM (rhinovirus A1B [8]): 90%; inhibition at 43 µM (rhinovirus A1B [9]): 14%; inhibition at 58 µM (rhinovirus B14 [10]): 90%; inhibition at 43 µM (rhinovirus A1B [11]): 90%; Activity (rhinovirus A1B [12]): Active; inhibition at 43 µM (rhinovirus A1B [13]): 24%; FC (rhinovirus A1B [14]): 1; Activity (rhinovirus A1B [15]): Active; inhibition (INH) (rhinovirus A1B [16]): 90%; FC (rhinovirus B14 [17]): 0.9; Activity (rhinovirus B14 [18]): Active; Activity (rhinovirus B14 [19]): Active; inhibition at 58 µM (rhinovirus B14 [20]): 90%; inhibition at 58 µM (rhinovirus B14 [21]): 16%; inhibition at 58 µM (rhinovirus B14 [22]): 1%; Activity (rhinovirus B14 [23]): inactive; FC (rhinovirus A1B [24]): 1.1; FC (rhinovirus B14 [25]): 0.9
5 | O=c1c(/C=C\c2cccnc2)coc2ccccc12 | >4.28 | 15.4 | > 200 | > 200 | 46.8 | >12.98 | –
6 | C1=C(/C=C\c2ccncc2)COc2ccccc21 | 70.42 | 2.9 | 50 | 25 | 0.71 | 17.24 | –
7 | Clc1ccc2c(c1)C=C(/C=C/c1ccncc1)CO2 | 15.82 | 6.71 | 75 | 50 | 4.74 | 11.17 | –
8 | C1=C(/C=C/c2ccncc2)COc2ccccc21 | 38.26 | 3.03 | 75 | 50 | 1.96 | 24.75 | –
9 | C1=C(/C=C\c2cccnc2)COc2ccccc21 | 38.26 | 9.37 | 37.5 | 25 | 0.98 | 4 | –
10 | O=c1c(/C=C/c2ccccn2)coc2ccccc12 | >38.84 | 7.08 | > 200 | > 200 | 5.15 | >28.25 | –
11 | O=c1c(/C=C/c2ccncc2)coc2ccccc12 | – | 92.1 | > 100 | > 100 | > 100 | >1.08 | Activity (rhinovirus A1B [26]): 22%
12 | O=c1c(/C=C/c2ccccn2)coc2ccc(Cl)cc12 | >31.25 | 5.1 | > 50 | > 50 | 1.6 | >9.8 | –
13 | O=c1c(/C=C\c2cccnc2)coc2ccc(Cl)cc12 | 11.74 | 10.1 | 50 | 25 | 4.26 | 4.94 | –
14 | Clc1ccc2c(c1)C=C(/C=C/c1ccccn1)CO2 | >29.59 | 8.96 | > 50 | > 50 | 1.69 | >5.58 | –
